Two compounds from patent publication US20230321140A1, “MULTIPLE MEDIATORS TARGETED MULTIFUNCTIONAL NANOPARTICLES AND USES THEREOF” (The Trustees of Columbia University in the City of New York, priority 2022, published 2023) can be followed below.

The subject of one experiment is E. coli. In words: Antibacterial effect (OD 600 nm). Format: cell-based, Escherichia coli. The conditions noted are these: 6 h and 12 h. The protocol:
E. coli was used to investigate the anti-bacterial effect of NPs. E. coli diluted in Luria-Bertani liquid medium were seeded in a 96-well plate at a density of 10^6/mL and were treated with NPs at different concentrations. After 6 h and 12 h of incubation with NPs at 37° C., the proliferation of bacteria was determined with a multiwell plate reader by measuring the OD at 600 nm.

The test system of a further experiment is calf thymus DNA. In words: PicoGreen DNA binding affinity assay. The following applies: TE buffer without FBS; calf thymus DNA 0.5 μg/mL. As for the experimental part: FIGS. 2A-B show DNA binding affinity of NPs at different NP:DNA mass ratios (see legend) in TE buffer without Fetal Bovine Serum (FBS) (A) and with 10% FBS (B). [Calf thymus DNA]=0.5 μg/mL. (C) Cytotoxicity of NPs to RAW 264.7 cells. (D) Colocalization of FITC-labeled TA-Zn-Gen NPs and Cy5-labeled CpG in lysosomes (CLSM images). Scale bar, 10 μm. Quant-iT PicoGreen (12.5 μL) and calf thymus DNA ([…], 25 μL) were mixed with 1×TE buffer (10 mL) in the dark. NPs at different concentrations in 100 μL together with 100 μL of the above solution were added to a 96-well black plate and incubated at 37° C. for 30 min. The fluorescence intensity of the Picogreen-DNA complex at 520 nm was measured with a multiwell plate reader via excitation at 490 nm.

Consider gentamicin, for which the “antibacterial activity, NPs versus free components” value in the experiment with E. coli is reported as “potent concentration-dependent antibacterial effect”. For the compound `O=C(OC[C@H]1O[C@@H](OC(=O)c2cc(O)c(O)c(OC(=O)c3cc(O)c(O)c(O)c3)c2)[C@H](OC(=O)c2cc(O)c(O)c(OC(=O)c3cc(O)c(O)c(O)c3)c2)[C@@H](OC(=O)c2cc(O)c(O)c(OC(=O)c3cc(O)c(O)c(O)c3)c2)[C@@H]1OC(=O)c1cc(O)c(O)c(OC(=O)c2cc(O)c(O)c(O)c2)c1)c1cc(O)c(O)c(OC(=O)c2cc(O)c(O)c(O)c2)c1` [tannic acid], the “antibacterial activity, NPs versus free components” value with E. coli is “slight antibacterial activity at a high concentration”. Moreover, in the experiment with calf thymus DNA, the DNA binding affinity result is “also exhibited DNA binding”.
